We go through two compounds from patent US9493426B2, “Quinazolinone derivatives useful as FGFR kinase modulators” (priority 2013, dated 2016).

The target in data set [1] is Ba/F3-FGFR4-transfected cells (Homo sapiens, UniProt P22455, cells depend on it, form not given). Put plainly: Ba/F3-FGFR4 cellular proliferation assay. It is filed as cell-based. To be noted: 24 hours, Alamar Blue. As to the method:
Ba/F3-FGFR4 (Cellular Proliferation Assay)
(§1) In a 384 well plate, 100 nl of compound dilution in DMSO was sprayed before adding 50 μl cell culture medium (phenol red free RPMI-1640, 10% FBS, 2 mM L-Glutamine and 50 μg/ml Gentamycin) containing 20000 cells per well of Ba/F3-FGFR4-transfected cells. Cells were put in an incubator at 37° C. and 5% CO2. After 24 hours, 10 μl of Alamar Blue solution (0.5 mM K3Fe(CN)6, 0.5 mM K4Fe(CN)6, 0.15 mM Resazurin and 100 mM Phosphate Buffer) was added to the wells, incubated for 4 hours at 37° C. and 5% CO2 before RFU's (Relative Fluorescence Units) (ex. 540 nm., em. 590 nm.) were measured in a fluorescence plate reader.
In this assay, the inhibitory effect of different compound concentrations (range 10 μM to 0.1 nM) was determined and used to calculate an IC50 (M) and pIC50 (−log IC50) value.
In general terms: Alamar Blue is a resazurin reagent that responds to reducing activity.

In a further data set the target is T1, FGFR4 (Homo sapiens, UniProt P22455).
T1 construct: purchased DiscoveRx Corporation
The data set is described as follows: Enzyme binding assay (KINOMEscan) FGFR4. The settings on record: pKd = -log Kd (M), read-out: FGFR4_pKd (converted). On the procedure:
(§2) Enzyme Binding Assays (KINOMEscan®)
(§3) Kinase enzyme binding affinities of compounds disclosed herein were determined using the KINOMEscan® technology performed by DiscoveRx Corporation, San Diego, Calif., USA (www.kinomescan.com).

A further data set concerns the target T2, FGFR3 (Homo sapiens, UniProt P22607).
T2 construct: purchased DiscoveRx Corporation
Put plainly: Enzyme binding assay (KINOMEscan) FGFR3. To be noted: pKd = -log Kd (M), read-out: FGFR3_pKd (converted). On the procedure: as §2, §3

The target in the next data set is T3, VEGFR2 (Homo sapiens, UniProt P35968).
T3 construct: purchased DiscoveRx Corporation
Put plainly: Enzyme binding assay (KINOMEscan) VEGFR2. To be noted: pKd = -log Kd (M), read-out: VEGFR2_pKd (converted). As to the method: as §2, §3

The next data set deals with KDR (h) (Homo sapiens, UniProt P35968). The data set is described as follows: KDR (VEGFR2) (enzymatic assay), TR-FRET. It is filed as biochemical. The settings on record: 3 μM ATP; pIC50 = -log IC50 (M); read-out: VEGFR KDR pIC50 (converted). As to the method: KDR (VEGFR2) (Enzymatic Assay)
In a final reaction volume of 30 μL, KDR (h) (150 ng/ml) was incubated with 50 mM HEPES pH 7.5, 6 mM MnCl2, 1 mM DTT, 0.1 mM Na3VO4, 0.01% Triton-X-100, 500 nM Btn-Flt3 and 3 μM ATP in the presence of compound (1% DMSO final). After incubation for 120 minutes at room temperature the reaction was stopped with 2.27 nM EU-anti P-Tyr, 7 mM EDTA, 31.25 nM SA-XL-665 and 0.02% BSA which was present for 60 minutes at room temperature. Time-Resolved Fluorescence Resonance Energy Transfer (TR-FRET) signal (ex340 nm. Em 620 nm, em 655 nm) was measured afterwards and results are expressed in RFU (Relative Fluorescence Units). In this assay, the inhibitory effect of different compound concentrations (range 10 μM to 0.1 nM) was determined and used to calculate an IC50 (M) and pIC50 (−log IC50) value.
On the technique in general: Time-resolved FRET reads energy transfer from a long-lived donor to a nearby acceptor.

The target of data set [2] is T4, Ba/F3-FGFR1-transfected cells (Homo sapiens, UniProt P11362).
T4 construct: other: minus IL3; 24 hours, Alamar Blue
Put plainly: Ba/F3-FGFR1 (minus IL3 or plus IL3) cellular proliferation assay. The settings on record: 24 hours, Alamar Blue. It is filed as cell-based. On the procedure: Ba/F3-FGFR1 (Minus IL3 or Plus IL3) (Cellular Proliferation Assay)
as §1, with “Ba/F3-FGFR1-transfected” for “Ba/F3-FGFR4-transfected”
(§4) In this assay, the inhibitory effect of different compound concentrations (range 10 μM to 0.1 nM) was determined and used to calculate an IC50 (M) and pIC50 (−log IC50) value. As a counterscreen the same experiment was performed in the presence of 10 ng/ml murine IL3.

The target of the next data set is T5, FGFR2 (Homo sapiens, UniProt P21802).
T5 construct: purchased DiscoveRx Corporation
The data set is described as follows: Enzyme binding assay (KINOMEscan) FGFR2. The settings on record: pKd = -log Kd (M), read-out: FGFR2_pKd (converted). As to the method: as §2, §3

Another data set deals with FGFR2 (h) (Homo sapiens, UniProt P21802). Put plainly: FGFR2 (enzymatic assay), TR-FRET. Format: biochemical. To be noted: 0.4 μM ATP; pIC50 = -log IC50 (M); read-out: FGFR 2 pIC50 (converted).
Data set [3] deals with T6, Ba/F3-KDR-transfected cells (Homo sapiens, UniProt P35968, cells depend on it, form not given).
T6 construct: BAF3-KDR (MIN IL3 pIC50); other: minus IL3; 24 hours, Alamar Blue
The data set is described as follows: Ba/F3-KDR (minus IL3 or plus IL3) cellular proliferation assay. Format: cell-based. The settings on record: 24 hours, Alamar Blue. On the procedure:
Ba/F3-KDR (Minus IL3 or Plus IL3) (Cellular Proliferation Assay)
as §1, with “Ba/F3-KDR-transfected” for “Ba/F3-FGFR4-transfected”
as §4

A further data set addresses FGFR1 (h) (Homo sapiens, UniProt P11362). Put plainly: FGFR1 (enzymatic assay), TR-FRET. Format: biochemical.
The next data set deals with FGFR4 (h) (Homo sapiens, UniProt P22455). The data set is described as follows: FGFR4 (enzymatic assay), TR-FRET. The settings on record: 5 μM ATP; pIC50 = -log IC50 (M); read-out: FGFR 4 pIC50 (converted). Format: biochemical.
The target of data set [4] is T7, Ba/F3-FGFR3-transfected cells (Homo sapiens, UniProt P22607, cells depend on it, form not given).
T7 construct: BAF3-FGFR3 (MIN IL3 pIC50); other: minus IL3; 24 hours, Alamar Blue
The data set is described as follows: Ba/F3-FGFR3 (minus IL3 or plus IL3) cellular proliferation assay. Format: cell-based. The settings on record: 24 hours, Alamar Blue. On the procedure:
Ba/F3-FGFR3 (Minus IL3 or Plus IL3) (Cellular Proliferation Assay)
as §1, with “Ba/F3-FGFR3-transfected” for “Ba/F3-FGFR4-transfected”
as §4

The next data set concerns the target FGFR3 (h) (Homo sapiens, UniProt P22607). Put plainly: FGFR3 (enzymatic assay), TR-FRET. It is filed as biochemical. The settings on record: 25 μM ATP; pIC50 = -log IC50 (M); read-out: FGFR3 pIC50 (converted).
In the next data set the target is T8, FGFR1 (Homo sapiens, UniProt P11362).
T8 construct: purchased DiscoveRx Corporation
Put plainly: Enzyme binding assay (KINOMEscan) FGFR1. To be noted: FGFR1_pKd, pKd = -log Kd (M). On the procedure: as §2, §3

Chain of FGFR2 (h) (P21802 22-821): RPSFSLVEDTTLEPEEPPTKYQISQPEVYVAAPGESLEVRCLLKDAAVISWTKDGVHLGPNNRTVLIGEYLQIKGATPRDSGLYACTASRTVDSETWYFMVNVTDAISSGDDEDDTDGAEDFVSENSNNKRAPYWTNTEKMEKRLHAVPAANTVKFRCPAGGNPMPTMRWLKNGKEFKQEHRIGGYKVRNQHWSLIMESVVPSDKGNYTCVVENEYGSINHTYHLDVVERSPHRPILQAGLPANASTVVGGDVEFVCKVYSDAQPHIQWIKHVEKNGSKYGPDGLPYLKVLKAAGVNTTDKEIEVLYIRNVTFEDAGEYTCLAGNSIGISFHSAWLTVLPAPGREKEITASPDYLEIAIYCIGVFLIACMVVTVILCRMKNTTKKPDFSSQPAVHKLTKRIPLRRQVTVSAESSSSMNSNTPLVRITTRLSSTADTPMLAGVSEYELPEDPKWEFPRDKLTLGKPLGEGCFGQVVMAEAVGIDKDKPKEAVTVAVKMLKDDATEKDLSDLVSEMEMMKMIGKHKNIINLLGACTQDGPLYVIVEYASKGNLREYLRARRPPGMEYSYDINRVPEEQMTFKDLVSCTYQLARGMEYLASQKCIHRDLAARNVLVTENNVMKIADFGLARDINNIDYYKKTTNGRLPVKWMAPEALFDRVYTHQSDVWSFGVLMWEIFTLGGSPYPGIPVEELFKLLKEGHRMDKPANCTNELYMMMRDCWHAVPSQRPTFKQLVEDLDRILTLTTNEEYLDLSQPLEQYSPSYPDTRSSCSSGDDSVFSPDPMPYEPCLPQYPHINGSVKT
T5 sequence (P21802 22-821): as above
T1 sequence (P22455 22-802): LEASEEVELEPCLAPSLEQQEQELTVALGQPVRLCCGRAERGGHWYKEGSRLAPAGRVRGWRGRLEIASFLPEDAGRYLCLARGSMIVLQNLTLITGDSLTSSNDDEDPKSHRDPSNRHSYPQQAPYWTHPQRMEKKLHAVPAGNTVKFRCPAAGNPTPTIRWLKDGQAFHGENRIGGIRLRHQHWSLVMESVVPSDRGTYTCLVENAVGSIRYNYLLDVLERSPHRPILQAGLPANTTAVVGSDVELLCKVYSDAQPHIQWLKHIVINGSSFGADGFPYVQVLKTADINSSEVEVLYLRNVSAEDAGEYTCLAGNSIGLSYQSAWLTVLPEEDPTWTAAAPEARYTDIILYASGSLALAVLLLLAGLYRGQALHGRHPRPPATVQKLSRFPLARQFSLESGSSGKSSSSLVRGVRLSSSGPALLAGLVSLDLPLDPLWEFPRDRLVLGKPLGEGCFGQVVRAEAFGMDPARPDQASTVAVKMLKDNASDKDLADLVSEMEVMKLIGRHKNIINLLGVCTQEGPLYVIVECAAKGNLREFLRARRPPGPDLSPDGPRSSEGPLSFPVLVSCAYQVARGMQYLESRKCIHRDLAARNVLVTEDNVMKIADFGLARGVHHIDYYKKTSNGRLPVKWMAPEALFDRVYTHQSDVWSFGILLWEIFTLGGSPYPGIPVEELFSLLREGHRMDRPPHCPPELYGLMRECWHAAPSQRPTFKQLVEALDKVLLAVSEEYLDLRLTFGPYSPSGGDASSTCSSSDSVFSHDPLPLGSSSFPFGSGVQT
Chain of FGFR4 (h) (P22455 22-802): as above
Chain of Ba/F3-FGFR4-transfected cells (P22455 whole entry, looked up, change not shown): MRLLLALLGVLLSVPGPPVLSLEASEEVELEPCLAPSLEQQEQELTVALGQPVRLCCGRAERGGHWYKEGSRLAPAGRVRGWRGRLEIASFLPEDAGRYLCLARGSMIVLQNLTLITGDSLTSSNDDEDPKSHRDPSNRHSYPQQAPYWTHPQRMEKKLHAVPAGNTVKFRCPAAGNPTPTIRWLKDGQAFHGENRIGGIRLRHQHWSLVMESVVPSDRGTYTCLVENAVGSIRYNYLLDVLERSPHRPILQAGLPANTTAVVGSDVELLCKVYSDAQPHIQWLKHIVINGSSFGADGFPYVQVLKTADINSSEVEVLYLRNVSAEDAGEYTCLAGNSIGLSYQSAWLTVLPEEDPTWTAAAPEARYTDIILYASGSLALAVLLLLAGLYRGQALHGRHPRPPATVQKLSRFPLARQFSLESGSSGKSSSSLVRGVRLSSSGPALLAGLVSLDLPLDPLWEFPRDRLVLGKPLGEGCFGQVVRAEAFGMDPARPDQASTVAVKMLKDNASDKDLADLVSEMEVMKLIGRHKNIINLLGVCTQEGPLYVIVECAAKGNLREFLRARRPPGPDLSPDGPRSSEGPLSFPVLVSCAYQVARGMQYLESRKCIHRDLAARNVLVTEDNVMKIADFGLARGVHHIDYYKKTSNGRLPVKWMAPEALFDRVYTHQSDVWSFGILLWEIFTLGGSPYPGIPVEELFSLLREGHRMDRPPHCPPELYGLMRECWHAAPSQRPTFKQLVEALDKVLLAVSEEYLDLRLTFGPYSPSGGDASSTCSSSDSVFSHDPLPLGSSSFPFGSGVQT
T8 sequence (P11362 22-822): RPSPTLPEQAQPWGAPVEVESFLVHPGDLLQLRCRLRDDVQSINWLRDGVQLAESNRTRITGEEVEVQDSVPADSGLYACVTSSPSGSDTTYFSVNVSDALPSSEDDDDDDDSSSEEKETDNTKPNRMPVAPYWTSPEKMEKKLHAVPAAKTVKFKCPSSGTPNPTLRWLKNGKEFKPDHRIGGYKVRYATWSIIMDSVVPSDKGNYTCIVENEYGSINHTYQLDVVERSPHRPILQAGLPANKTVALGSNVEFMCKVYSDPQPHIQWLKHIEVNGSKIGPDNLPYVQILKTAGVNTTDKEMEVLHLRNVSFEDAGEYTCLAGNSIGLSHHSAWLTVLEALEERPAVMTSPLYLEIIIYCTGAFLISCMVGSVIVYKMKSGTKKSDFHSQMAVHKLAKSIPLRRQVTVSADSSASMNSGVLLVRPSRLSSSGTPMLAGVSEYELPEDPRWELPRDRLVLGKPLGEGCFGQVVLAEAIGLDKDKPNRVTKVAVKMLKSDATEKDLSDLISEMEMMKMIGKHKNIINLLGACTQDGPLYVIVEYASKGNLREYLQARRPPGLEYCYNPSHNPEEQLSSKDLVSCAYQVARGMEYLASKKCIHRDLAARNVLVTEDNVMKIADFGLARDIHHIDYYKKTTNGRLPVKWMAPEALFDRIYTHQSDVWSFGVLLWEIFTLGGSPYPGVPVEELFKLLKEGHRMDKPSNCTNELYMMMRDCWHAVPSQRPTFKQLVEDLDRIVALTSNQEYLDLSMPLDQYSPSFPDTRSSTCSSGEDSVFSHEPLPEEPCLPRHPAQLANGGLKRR
Chain of FGFR1 (h) (P11362 22-822): as above
T4 sequence (P11362 whole entry, change not shown): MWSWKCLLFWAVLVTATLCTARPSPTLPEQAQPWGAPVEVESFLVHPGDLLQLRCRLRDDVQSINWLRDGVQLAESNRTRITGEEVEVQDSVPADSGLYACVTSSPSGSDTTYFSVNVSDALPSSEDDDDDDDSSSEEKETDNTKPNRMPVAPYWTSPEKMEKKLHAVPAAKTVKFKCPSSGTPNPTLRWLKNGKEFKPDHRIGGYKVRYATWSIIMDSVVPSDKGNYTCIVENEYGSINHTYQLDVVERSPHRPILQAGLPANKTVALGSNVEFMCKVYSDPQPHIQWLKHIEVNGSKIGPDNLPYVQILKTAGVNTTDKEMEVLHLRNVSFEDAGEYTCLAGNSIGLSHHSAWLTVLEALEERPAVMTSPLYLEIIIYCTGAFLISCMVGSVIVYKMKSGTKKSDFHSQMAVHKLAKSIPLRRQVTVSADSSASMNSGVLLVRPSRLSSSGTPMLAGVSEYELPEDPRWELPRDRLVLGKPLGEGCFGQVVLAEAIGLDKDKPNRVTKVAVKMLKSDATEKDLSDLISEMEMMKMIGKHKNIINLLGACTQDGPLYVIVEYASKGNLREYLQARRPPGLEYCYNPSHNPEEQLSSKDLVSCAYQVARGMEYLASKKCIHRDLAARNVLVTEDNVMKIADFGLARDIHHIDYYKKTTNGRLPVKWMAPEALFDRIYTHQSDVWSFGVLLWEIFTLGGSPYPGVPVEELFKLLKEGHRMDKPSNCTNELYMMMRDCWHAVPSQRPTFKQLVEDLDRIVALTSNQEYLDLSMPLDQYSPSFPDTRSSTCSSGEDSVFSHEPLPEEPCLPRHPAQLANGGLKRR
Chain of FGFR3 (h) (P22607 23-806): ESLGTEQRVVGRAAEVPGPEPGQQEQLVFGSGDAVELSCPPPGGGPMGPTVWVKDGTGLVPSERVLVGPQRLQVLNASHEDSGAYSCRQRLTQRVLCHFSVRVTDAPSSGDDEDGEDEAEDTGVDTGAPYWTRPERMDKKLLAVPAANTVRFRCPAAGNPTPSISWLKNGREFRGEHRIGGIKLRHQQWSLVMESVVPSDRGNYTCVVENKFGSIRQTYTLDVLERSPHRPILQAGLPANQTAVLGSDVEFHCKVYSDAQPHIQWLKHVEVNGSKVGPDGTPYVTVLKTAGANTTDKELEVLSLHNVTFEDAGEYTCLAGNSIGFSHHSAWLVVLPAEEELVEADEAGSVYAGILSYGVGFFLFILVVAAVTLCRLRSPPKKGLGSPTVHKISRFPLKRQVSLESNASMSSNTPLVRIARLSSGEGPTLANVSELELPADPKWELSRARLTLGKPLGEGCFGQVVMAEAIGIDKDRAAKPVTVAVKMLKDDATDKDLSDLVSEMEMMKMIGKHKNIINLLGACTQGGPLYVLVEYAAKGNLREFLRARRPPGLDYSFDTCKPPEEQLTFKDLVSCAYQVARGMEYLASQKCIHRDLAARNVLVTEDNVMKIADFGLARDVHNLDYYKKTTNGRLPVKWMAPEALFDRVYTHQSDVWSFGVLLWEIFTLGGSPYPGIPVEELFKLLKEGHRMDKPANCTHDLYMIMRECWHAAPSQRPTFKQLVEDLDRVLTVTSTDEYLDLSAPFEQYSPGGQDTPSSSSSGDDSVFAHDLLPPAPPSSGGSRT
T2 sequence (P22607 23-806): as above

Compound `COc1cc(OC)cc(N(CCO)c2ccc3ncn(-c4ccccc4)c(=O)c3c2)c1` [Compound 7] returned a melting point of 171 °C. In addition, the “BAF3-FGFR4 (pIC50)” value in [1] was below 5. Besides, the Kd at FGFR4 is above 1e-06 M. The Kd at FGFR3 is above 1e-06 M. Also, the Kd at VEGFR2 was above 1e-06 M. Further, the IC50 at KDR (h) is above 1e-06 M. Also, the “BAF3-FGFR1 (MIN IL3 pIC50)” value in [2] is listed as below 5. Besides, the Kd on FGFR2 was above 1e-06 M. Further, at FGFR2 (h), the IC50 is 3.98e-07 M. For the same compound, in data set [3], the “BAF3-KDR (MIN IL3 pIC50)” value is recorded as below 5. Also, the IC50 against FGFR1 (h) was 631 nM. Further, on FGFR4 (h), the IC50 is 3.98e-06 M. Besides, the “BAF3-FGFR3 (MIN IL3 pIC50)” value in data set [4] is recorded as below 5. For the same compound, the IC50 on FGFR3 (h) is 3.16e-07 M. At FGFR1, this compound yielded a Kd above 1e-06 M.

As for `COc1cc(OC)c(F)c(N(CCNC(C)C)c2ccc3ncn(-c4cnn(C)c4)c(=O)c3c2)c1F` [Compound 19], the melting point worked out at 162 °C. Moreover, in data set [1], the “BAF3-FGFR4 (pIC50)” value is given as 8.2. Also, the Kd on FGFR4 was 5.01e-09 M. Also, at FGFR3, the Kd was 5.01e-09 M. For the same compound, the Kd on VEGFR2 is 1.58e-08 M. For the same compound, the IC50 on KDR (h) was 1.26e-07 M. Moreover, the “BAF3-FGFR1 (MIN IL3 pIC50)” value in data set [2] is listed as 8.8. For the same compound, the Kd on FGFR2 was 5.01e-09 M. Also, at FGFR2 (h), the IC50 was 1.58e-08 M. Moreover, in [3], the “BAF3-KDR (MIN IL3 pIC50)” value was found to be 6.2. This compound gave an IC50 against FGFR1 (h) of 5.01 nM. Besides, the IC50 at FGFR4 (h) was 2e-08 M. Further, the “BAF3-FGFR3 (MIN IL3 pIC50)” value in data set [4] is listed as 8.6. Besides, the IC50 on FGFR3 (h) was 1.58e-08 M. Further, the Kd at FGFR1 was 1.58e-09 M.

Usually melting point stands for the temperature, or range, at which the solid turns liquid.
